Literature values in PMC8661056, “Synthesis and Evaluation of [^11C]7-Halogen-2-Phenyl Isoindolone Derivatives: Potential PET Radioligands for in vivo Imaging of 5-HT2C Receptors” (Frontiers in Neuroscience, 2021).

Tests used:
5HT2AR = target: 5HT2AR; design: method as in Finnema et al., 2014; settings: ref Finnema et al., 2014; cited from earlier work
5HT2CR = target: 5HT2CR; design: method as in Finnema et al., 2014; settings: ref Finnema et al., 2014; cited from earlier work
5-HT2CR = tested on: 5-HT2CR; design: method as in Kim et al., 2017; settings: rat brain; ref Kim et al., 2017; cited from earlier work

SMILES	Ki (5HT2AR) [nM]	Ki (5HT2CR) [nM]	ratios of uptake in regions of interest to cerebellum (5-HT2CR)
COc1cc(CCNCc2ccccc2O[11CH3])c(OC)cc1Br [[^11C]Cimbi-36]	0.5	1.7	
C[C@H](Cc1cccc([18F])c1)Oc1nc(N2CCNC[C@H]2C)ncc1F [[^18F]4, [^18F]4-(3-Fluorophenethoxy)pyrimidine]			low to moderate
